Columns and labels:
[1] = excess molar enthalpy (molar enthalpy of mixing); xn = mol fraction of the nth substance listed; conditions: 298.15 K, 101 kPa, Liquid, 2-Drop Calorimetry
[2] = xn = mol fraction of the nth substance listed; conditions: 101 kPa, Liquid; for speed of sound: Sing-around technique in a fixed-path interferometer; for mass density: Vibrating tube method

CCn1cc[n+](C)c1.F[B-](F)(F)F [1-ethyl-3-methylimidazolium tetrafluoroborate] + CC(C)=O
[1]
Conditions | excess molar enthalpy [kJ/mol]
x1 = 0.0987 | -0.057
x1 = 0.1451 | -0.083
x1 = 0.1991 | -0.114
x1 = 0.2547 | -0.142
x1 = 0.3012 | -0.159
x1 = 0.3428 | -0.177
x1 = 0.3984 | -0.193
x1 = 0.4425 | -0.202
x1 = 0.4851 | -0.208
x1 = 0.5335 | -0.21
x1 = 0.6021 | -0.201
x1 = 0.6689 | -0.19
x1 = 0.7148 | -0.175
x1 = 0.7723 | -0.15
x1 = 0.8227 | -0.121
x1 = 0.8769 | -0.089
x1 = 0.9012 | -0.073
x1 = 0.9113 | -0.067

[2]
Conditions | mass density, 293.15 K [kg/m3] | mass density, 298.15 K [kg/m3] | mass density, 303.15 K [kg/m3] | mass density, 308.15 K [kg/m3] | speed of sound, 293.15 K [m/s] | speed of sound, 298.15 K [m/s] | speed of sound, 303.15 K [m/s] | speed of sound, 308.15 K [m/s]
x1 = 0.1214 | 933.27 | 928.61 | 923.44 | 918.15 | 1241.1 | 1221 | 1193.4 | 1172.8
x1 = 0.1789 | 987.63 | 983.61 | 978.74 | 973.95 | 1280.4 | 1261.7 | 1233.4 | 1211.1
x1 = 0.2147 | 1017.82 | 1013.85 | 1009.37 | 1004.85 | 1307.6 | 1290.7 | 1262.9 | 1238.4
x1 = 0.2813 | 1066.88 | 1063.3 | 1059.25 | 1055.19 | 1360.4 | 1349.9 | 1321.9 | 1295.2
x1 = 0.3219 | 1092.73 | 1089.56 | 1085.84 | 1082.01 | 1394.1 | 1386.6 | 1358.3 | 1331
x1 = 0.3649 | 1117.49 | 1114.19 | 1110.78 | 1107.15 | 1429.2 | 1423.4 | 1398.5 | 1367.9
x1 = 0.4193 | 1144.91 | 1141.69 | 1138.75 | 1135.16 | 1473.1 | 1469.1 | 1449.6 | 1417.4
x1 = 0.4714 | 1167.62 | 1164.64 | 1161.69 | 1158.46 | 1507.7 | 1510.2 | 1490.7 | 1458.4
x1 = 0.5217 | 1186.9 | 1183.85 | 1181.07 | 1177.84 | 1539.7 | 1539.6 | 1526.3 | 1498
x1 = 0.5772 | 1205.54 | 1202.14 | 1199.7 | 1196.16 | 1566 | 1566.1 | 1559.2 | 1531
x1 = 0.6319 | 1221.27 | 1217.91 | 1215.28 | 1211.72 | 1583 | 1585.4 | 1579.8 | 1558.2
x1 = 0.6768 | 1232.69 | 1229.09 | 1226.6 | 1222.91 | 1593.5 | 1591.6 | 1587.6 | 1574.7
x1 = 0.7199 | 1242.54 | 1238.8 | 1236.06 | 1232.31 | 1601.6 | 1596.9 | 1594 | 1587.8
x1 = 0.7724 | 1252.97 | 1249.12 | 1246.25 | 1242.25 | 1604.7 | 1595.8 | 1592.9 | 1595.8
x1 = 0.8304 | 1263 | 1258.91 | 1255.95 | 1251.74 | 1607.5 | 1595.9 | 1591.6 | 1597.6
x1 = 0.8766 | 1269.84 | 1265.74 | 1262.51 | 1258.3 | 1610 | 1595.9 | 1589.9 | 1597.6
x1 = 0.9011 | 1273.08 | 1268.96 | 1265.71 | 1261.43 | 1612.6 | 1596.6 | 1589.4 | 1597.9
x1 = 0.9203 | 1275.47 | 1271.38 | 1267.99 | 1263.7 | 1614.6 | 1599 | 1591 | 1597.3

CCn1cc[n+](C)c1.F[B-](F)(F)F [1-ethyl-3-methylimidazolium tetrafluoroborate] + C[S+](C)[O-]
[1]
Conditions | excess molar enthalpy [kJ/mol]
x1 = 0.1116 | -0.435
x1 = 0.1785 | -0.664
x1 = 0.2157 | -0.802
x1 = 0.2854 | -0.975
x1 = 0.3259 | -1.07
x1 = 0.3981 | -1.18
x1 = 0.4368 | -1.19
x1 = 0.4852 | -1.22
x1 = 0.5111 | -1.22
x1 = 0.5729 | -1.18
x1 = 0.6255 | -1.09
x1 = 0.6899 | -0.971
x1 = 0.7365 | -0.871
x1 = 0.7943 | -0.702
x1 = 0.8338 | -0.573
x1 = 0.8896 | -0.379
x1 = 0.9012 | -0.351
x1 = 0.9258 | -0.259

[2]
Conditions | mass density, 293.15 K [kg/m3] | mass density, 298.15 K [kg/m3] | mass density, 303.15 K [kg/m3] | mass density, 308.15 K [kg/m3] | speed of sound, 293.15 K [m/s] | speed of sound, 298.15 K [m/s] | speed of sound, 303.15 K [m/s] | speed of sound, 308.15 K [m/s]
x1 = 0.1319 | 1154.13 | 1149.63 | 1145.2 | 1140.37 | 1533 | 1514.8 | 1498.7 | 1481.3
x1 = 0.1819 | 1170.55 | 1166.13 | 1161.81 | 1157.02 | 1544.4 | 1526.6 | 1510.3 | 1492.8
x1 = 0.2336 | 1185.68 | 1181.3 | 1177.06 | 1172.25 | 1556.2 | 1538.6 | 1522.2 | 1504.7
x1 = 0.2909 | 1200.5 | 1196.12 | 1191.89 | 1187.15 | 1567.8 | 1551 | 1535.1 | 1517.4
x1 = 0.3417 | 1212.05 | 1207.64 | 1203.45 | 1198.76 | 1577.3 | 1561.5 | 1545.4 | 1528.1
x1 = 0.3799 | 1219.83 | 1215.48 | 1211.24 | 1206.59 | 1584 | 1568.7 | 1552.3 | 1535.9
x1 = 0.4215 | 1227.57 | 1223.18 | 1219.02 | 1214.39 | 1589.9 | 1575.8 | 1559.5 | 1543.2
x1 = 0.4719 | 1236 | 1231.61 | 1227.4 | 1222.88 | 1596.3 | 1583.7 | 1567.7 | 1552
x1 = 0.5335 | 1244.97 | 1240.56 | 1236.44 | 1232.02 | 1602.8 | 1591.2 | 1575.8 | 1560.5
x1 = 0.5782 | 1250.68 | 1246.29 | 1242.17 | 1237.86 | 1606.2 | 1595.6 | 1580.4 | 1566.1
x1 = 0.6198 | 1255.44 | 1251.13 | 1247.04 | 1242.76 | 1608.8 | 1598.6 | 1584.3 | 1571
x1 = 0.6717 | 1260.78 | 1256.5 | 1252.45 | 1248.28 | 1611 | 1601.8 | 1588.6 | 1575.9
x1 = 0.7204 | 1265.23 | 1260.99 | 1257 | 1252.91 | 1613 | 1604.4 | 1591.7 | 1579.7
x1 = 0.7737 | 1269.58 | 1265.39 | 1261.48 | 1257.45 | 1614.7 | 1606.4 | 1594.6 | 1583.2
x1 = 0.8219 | 1273.1 | 1268.95 | 1265.1 | 1261.11 | 1616.4 | 1607.9 | 1596.8 | 1586
x1 = 0.8783 | 1276.82 | 1272.74 | 1268.97 | 1264.97 | 1619.2 | 1610.3 | 1599.7 | 1588.9
x1 = 0.9041 | 1278.42 | 1274.36 | 1270.62 | 1266.61 | 1621 | 1611.6 | 1601.1 | 1590.4
x1 = 0.9249 | 1279.65 | 1275.62 | 1271.9 | 1267.87 | 1622.6 | 1612.9 | 1602.2 | 1591.6
